Laboratory results published in US20250320189A1, “NEW DERIVATIVES FOR TREATING TRPM3 MEDIATED DISORDERS” (Katholieke Universiteit Leuven, priority 2022, published 2025).

target: T1, mouse TRPM3α2 (mTRPM3) ion channel (Mus musculus, UniProt J9SQF3); experiment: Monitoring the TRPM3 ion channel driven Ca2+ uptake (Fluo-4 AM assay); assay type: cell-based; conditions: mTRPM3alpha2 overexpressing flip-in HEK293 cells, stimulated with Pregnenolone sulfate (PS) 50 μM
T1 construct: expressed in transfected cells; host or cells: flip-in (Flp-In) HEK293
In short: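 Flp-In HEK293 cells overexpressing mTRPM3α2 were loaded with Fluo-4 AM and added to plates holding compound plus 50 μM pregnenolone sulfate in Ca²⁺-containing Krebs buffer. Fluorescence (ex 485/em 535) was read right after cell addition. Inhibition was calculated against vehicle-stimulated and positive-control-inhibitor wells, with IC50 derived from it.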

T1 sequence (J9SQF3 1-1709 isoform J9SQF3-12): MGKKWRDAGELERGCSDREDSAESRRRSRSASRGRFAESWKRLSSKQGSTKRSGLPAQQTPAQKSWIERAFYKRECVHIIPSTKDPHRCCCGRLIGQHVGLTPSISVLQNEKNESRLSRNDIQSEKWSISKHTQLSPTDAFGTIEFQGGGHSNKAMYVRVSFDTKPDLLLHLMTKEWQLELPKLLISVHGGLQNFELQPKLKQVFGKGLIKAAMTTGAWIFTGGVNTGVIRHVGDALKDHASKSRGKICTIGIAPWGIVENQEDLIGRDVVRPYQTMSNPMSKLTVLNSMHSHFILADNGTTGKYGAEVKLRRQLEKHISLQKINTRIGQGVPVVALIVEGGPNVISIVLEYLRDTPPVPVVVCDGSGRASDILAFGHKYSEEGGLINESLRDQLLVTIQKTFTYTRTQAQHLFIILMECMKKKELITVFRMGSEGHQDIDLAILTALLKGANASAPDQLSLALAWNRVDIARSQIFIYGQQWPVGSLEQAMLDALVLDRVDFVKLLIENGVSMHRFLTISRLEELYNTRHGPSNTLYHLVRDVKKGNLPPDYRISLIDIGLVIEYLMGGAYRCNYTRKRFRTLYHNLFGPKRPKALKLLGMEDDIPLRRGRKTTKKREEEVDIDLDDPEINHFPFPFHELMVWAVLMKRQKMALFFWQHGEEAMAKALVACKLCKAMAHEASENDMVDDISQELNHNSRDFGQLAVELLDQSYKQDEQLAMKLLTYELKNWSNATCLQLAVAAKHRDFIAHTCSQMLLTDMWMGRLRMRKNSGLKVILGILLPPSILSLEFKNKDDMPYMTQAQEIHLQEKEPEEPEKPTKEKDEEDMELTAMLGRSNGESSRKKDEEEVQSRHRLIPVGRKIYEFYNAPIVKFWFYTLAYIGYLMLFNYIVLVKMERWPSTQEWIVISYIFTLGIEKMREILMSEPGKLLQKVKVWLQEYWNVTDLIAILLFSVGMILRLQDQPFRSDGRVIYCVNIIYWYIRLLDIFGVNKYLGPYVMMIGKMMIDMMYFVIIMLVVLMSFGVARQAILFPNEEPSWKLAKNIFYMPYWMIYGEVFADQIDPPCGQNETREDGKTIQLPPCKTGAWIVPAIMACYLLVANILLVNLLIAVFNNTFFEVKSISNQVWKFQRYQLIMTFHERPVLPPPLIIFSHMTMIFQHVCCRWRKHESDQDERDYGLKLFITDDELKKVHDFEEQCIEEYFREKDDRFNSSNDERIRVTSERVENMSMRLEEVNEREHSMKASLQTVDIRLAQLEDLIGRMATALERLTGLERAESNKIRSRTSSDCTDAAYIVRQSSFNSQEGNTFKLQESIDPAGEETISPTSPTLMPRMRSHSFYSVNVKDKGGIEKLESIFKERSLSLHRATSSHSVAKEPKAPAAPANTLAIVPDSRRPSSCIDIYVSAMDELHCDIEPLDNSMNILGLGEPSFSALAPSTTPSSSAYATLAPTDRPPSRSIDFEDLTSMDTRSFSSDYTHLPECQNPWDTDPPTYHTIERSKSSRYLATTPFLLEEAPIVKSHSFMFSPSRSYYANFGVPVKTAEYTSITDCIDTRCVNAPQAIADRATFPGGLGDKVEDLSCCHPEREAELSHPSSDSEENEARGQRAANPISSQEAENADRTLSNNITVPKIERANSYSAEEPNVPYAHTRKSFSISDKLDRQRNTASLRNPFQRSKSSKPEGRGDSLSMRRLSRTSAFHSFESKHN

| Molecule | IC50 [nM] |
| --- | --- |
| Cc1oc2ccc(OCC3CC3(C)C)cc2c1C(=O)NC1CCNCC1(F)F (single isomer, unassigned) [Cpd 033-En1, N-(3,3-difluoropiperidin-4-yl)-5-[(2,2-dimethylcyclopropyl)methoxy]-2-methyl-1-benzofuran-3-carboxamide] | 1000 to 20000 |
| Cc1oc2ccc(OCC3CC3)cc2c1C(=O)NC(C)(CO)C(N)=O (single isomer, unassigned) [Cpd 017 - En2, 2-{[5-(cyclopropylmethoxy)-2-methyl-1-benzofuran-3-yl]formamido}-3-hydroxy-2-methylpropanamide] | < 1000 |
| Cc1oc2ccc(OCC3CC3)cc2c1C(=O)NC1CCOCC1 [Cpd 022, 5-(cyclopropylmethoxy)-2-methyl-N-(oxan-4-yl)-1-benzofuran-3-carboxamide] | 1000 to 20000 |
| Cc1oc2ccc(OCC3(C(F)F)CC3)cc2c1C(=O)N[C@@H](CO)C(N)=O [Cpd 003, (2S)-2-[(5-{[1-(difluoromethyl)cyclopropyl]methoxy}-2-methyl-1-benzofuran-3-yl)formamido]-3-hydroxypropanamide] | < 1000 |
| Cc1oc2ccc(OCC3CC3)cc2c1C(=O)N[C@@H](C)C(N)=O [Cpd 010, (2S)-2-{[5-(cyclopropylmethoxy)-2-methyl-1-benzofuran-3-yl]formamido}propanamide] | < 1000 |
| NC(=O)[C@H](CO)NC(=O)c1c(C(F)F)oc2ccc(OCC3CC3)cc12 [Cpd 008, (2S)-2-{[5-(cyclopropylmethoxy)-2-(difluoromethyl)-1-benzofuran-3-yl]formamido}-3-hydroxypropanamide] | < 1000 |
| Cc1oc2ccc(OCC(C)C)cc2c1C(=O)NC1CCNCC1(F)F (single isomer, unassigned) [Cpd 042-En1, N-(3,3-difluoropiperidin-4-yl)-2-methyl-5-(2-methylpropoxy)-1-benzofuran-3-carboxamide] | 1000 to 20000 |
| Cc1oc2ccc(OCC3CC3)cc2c1C(=O)NC1(CO)CCC1 [Cpd 025, 5-(cyclopropylmethoxy)-N-[1-(hydroxymethyl)cyclobutyl]-2-methyl-1-benzofuran-3-carboxamide] | < 1000 |

Other lines, results leading:

| IC50 [nM] | Molecule |
| --- | --- |
| < 1000 | Cc1oc2ccc(OCC3CC3)cc2c1C(=O)NC(C)(CO)CC(F)F (single isomer, unassigned) [Cpd 046 - En2, 5-(cyclopropylmethoxy)-N-(4,4-difluoro-1-hydroxy-2-methylbutan-2-yl)-2-methyl-1-benzofuran-3-carboxamide] |
| < 1000 | Cc1oc2ccc(OCC3(C(F)(F)F)CC3)cc2c1C(=O)NC(C)(CO)C(N)=O (single isomer, unassigned) [Cpd 048 - En1, 3-hydroxy-2-methyl-2-[(2-methyl-5-{[1-(trifluoromethyl)cyclopropyl]methoxy}-1-benzofuran-3-yl)formamido]propanamide] |
| < 1000 | Cc1oc2ccc(OCC34CC(C)(C3)C4)cc2c1C(=O)NC(C)(CO)C(N)=O (single isomer, unassigned) [Cpd 052 - En2, 3-hydroxy-2-methyl-2-{[2-methyl-5-({3-methylbicyclo[1.1.1]pentan-1-yl}methoxy)-1-benzofuran-3-yl]formamido}propenamide] |
| < 1000 | Cc1oc2ccc(OCC3CCCC3)cc2c1C(=O)NC(C)(CO)C(N)=O (single isomer, unassigned) [Cpd 062 - En1, 2-{[5-(cyclopentylmethoxy)-2-methyl-1-benzofuran-3-yl]formamido}-3-hydroxy-2-methylpropanamide] |
| 1000 to 20000 | Cc1oc2ccc(OC[C@@H]3C[C@@H]4C[C@@H]4C3)cc2c1C(=O)NC(C)(CO)C(N)=O (single isomer, unassigned) [Cpd 050 - En1, Cis-2-{[5-({bicyclo[3.1.0]hexan-3-yl}methoxy)-2-methyl-1-benzofuran-3-yl]formamido}-3-hydroxy-2-methylpropanamide] |
| 1000 to 20000 | Cc1oc2ccc(OCC(C)(C)C)cc2c1C(=O)NC1CCNCC1(F)F (single isomer, unassigned) [Cpd 043-En1, N-(3,3-difluoropiperidin-4-yl)-5-(2,2-dimethylpropoxy)-2-methyl-1-benzofuran-3-carboxamide] |
| 1000 to 20000 | Cc1oc2ccc(OCC3CC3)cc2c1C(=O)NC(CO)C(N)C(F)(F)F (single isomer, unassigned) [Cpd 056 - En1, N-[(2)-3-amino-4,4,4-trifluoro-1-hydroxybutan-2-yl]-5-(cyclopropylmethoxy)-2-methyl-1-benzofuran-3-carboxamide] |
| 1000 to 20000 | Cc1oc2ccc(OCC3CC3)cc2c1C(=O)NC(CO)C(N)C(F)(F)F (single isomer, unassigned) [Cpd 056 - En4, N-[(2)-3-amino-4,4,4-trifluoro-1-hydroxybutan-2-yl]-5-(cyclopropylmethoxy)-2-methyl-1-benzofuran-3-carboxamide] |
| 1000 to 20000 | Cc1oc2ccc(OC[C@H]3C[C@@H](C)C3)cc2c1C(=O)NC(C)(CO)C(N)=O (single isomer, unassigned) [Cpd 058 - En2, Cis-3-hydroxy-2-methyl-2-({2-methyl-5-[(3-methylcyclobutyl)methoxy]-1-benzofuran-3-yl}formamido)propenamide] |
| < 1000 | Cc1oc2ccc(OCC3CC3)cc2c1C(=O)NC(CO)C(N)C(F)(F)F (single isomer, unassigned) [Cpd 056 - En3, N-[(2)-3-amino-4,4,4-trifluoro-1-hydroxybutan-2-yl]-5-(cyclopropylmethoxy)-2-methyl-1-benzofuran-3-carboxamide] |

system: wild type mice / knock-out TRPM3 mice; experiment: not given; conditions: wild type mice vs knock-out TRPM3 mice; cited from earlier work

| Molecule | evoked pain |
| --- | --- |
| pregnenolone sulfate | evoked pain in wild type mice but not in knock-out TRPM3 mice |

target: TRPM3 (Homo sapiens, UniProt Q9HCF6); experiment: not given; conditions: cited from earlier work
Sequence (Q9HCF6 whole entry, species assumed): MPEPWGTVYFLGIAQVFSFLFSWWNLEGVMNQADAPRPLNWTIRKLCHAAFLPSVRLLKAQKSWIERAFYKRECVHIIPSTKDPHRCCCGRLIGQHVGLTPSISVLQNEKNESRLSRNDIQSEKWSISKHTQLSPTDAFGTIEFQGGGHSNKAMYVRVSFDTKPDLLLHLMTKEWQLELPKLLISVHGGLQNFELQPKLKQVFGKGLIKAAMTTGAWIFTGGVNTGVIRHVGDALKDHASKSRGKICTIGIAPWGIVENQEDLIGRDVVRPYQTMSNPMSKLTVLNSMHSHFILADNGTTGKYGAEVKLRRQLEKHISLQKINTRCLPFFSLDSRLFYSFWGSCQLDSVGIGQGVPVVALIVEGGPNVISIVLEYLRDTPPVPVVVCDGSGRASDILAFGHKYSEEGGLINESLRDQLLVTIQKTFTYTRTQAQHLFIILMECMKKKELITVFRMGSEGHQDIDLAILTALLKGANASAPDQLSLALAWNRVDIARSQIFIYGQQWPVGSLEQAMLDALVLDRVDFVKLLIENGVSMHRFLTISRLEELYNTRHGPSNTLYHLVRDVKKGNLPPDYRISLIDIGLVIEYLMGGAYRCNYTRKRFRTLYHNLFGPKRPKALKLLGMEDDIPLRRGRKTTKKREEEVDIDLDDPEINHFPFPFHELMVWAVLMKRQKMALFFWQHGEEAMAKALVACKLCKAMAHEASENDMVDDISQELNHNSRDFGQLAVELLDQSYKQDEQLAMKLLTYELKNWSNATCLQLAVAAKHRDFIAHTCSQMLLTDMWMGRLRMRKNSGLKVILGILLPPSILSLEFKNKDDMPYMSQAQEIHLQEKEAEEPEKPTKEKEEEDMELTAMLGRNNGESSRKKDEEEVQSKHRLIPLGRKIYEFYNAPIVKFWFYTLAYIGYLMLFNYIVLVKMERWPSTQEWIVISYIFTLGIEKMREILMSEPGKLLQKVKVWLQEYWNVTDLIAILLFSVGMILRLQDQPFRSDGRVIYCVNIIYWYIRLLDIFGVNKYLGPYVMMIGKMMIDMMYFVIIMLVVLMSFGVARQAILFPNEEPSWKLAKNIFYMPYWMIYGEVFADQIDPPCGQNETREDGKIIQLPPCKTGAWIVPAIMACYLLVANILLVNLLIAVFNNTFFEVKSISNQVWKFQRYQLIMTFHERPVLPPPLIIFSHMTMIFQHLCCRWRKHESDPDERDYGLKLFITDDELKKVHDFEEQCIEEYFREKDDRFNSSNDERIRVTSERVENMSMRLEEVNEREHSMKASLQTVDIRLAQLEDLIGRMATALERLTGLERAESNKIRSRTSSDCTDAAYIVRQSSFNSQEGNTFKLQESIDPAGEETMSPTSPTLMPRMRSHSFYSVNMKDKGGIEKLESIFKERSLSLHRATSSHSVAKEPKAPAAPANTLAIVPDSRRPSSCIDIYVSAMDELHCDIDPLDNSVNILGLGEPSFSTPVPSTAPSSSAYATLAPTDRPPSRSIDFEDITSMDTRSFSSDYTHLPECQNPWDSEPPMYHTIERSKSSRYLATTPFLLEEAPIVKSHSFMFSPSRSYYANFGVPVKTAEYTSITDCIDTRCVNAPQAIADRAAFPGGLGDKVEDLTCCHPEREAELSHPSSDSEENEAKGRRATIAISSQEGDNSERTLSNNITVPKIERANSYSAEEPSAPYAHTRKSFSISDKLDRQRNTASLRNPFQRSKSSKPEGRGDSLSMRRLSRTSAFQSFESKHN

| Molecule | activator of TRPM3 |
| --- | --- |
| pregnenolone sulfate | potent known activator |

system: rat pain model; experiment: not given; conditions: cited from earlier work

| Molecule | mechanical and cold hyperalgesia |
| --- | --- |
| O=C1C[C@@H](c2ccc(O)cc2)Oc2cc(O)ccc21 [Liquiritigenin] | decrease mechanical and cold hyperalgesia |
